Source: publication PMC11513924, “Addressing the Intracellular Vestibule of the Plasmodial Lactate Transporter PfFNT by p-Substituted Inhibitors Amplifies In Vitro Activity” (Journal of Medicinal Chemistry, 2024)
Like-named read-outs stand apart in the source and are kept apart here.

Tests used:
PfFNT G107S = molecular target: T1, PfFNT G107S (Plasmodium falciparum, UniProt O77389, G107S); assay: Yeast-based 14C-lactate transport assay, PfFNT G107S resistance mutant; format: cell-based
T1 construct: expressed in transfected cells; host or cells: Saccharomyces cerevisiae (yeast transport assay; strain as for wild type, inferred from the shared method)
T1 sequence (O77389 1-309 G107S): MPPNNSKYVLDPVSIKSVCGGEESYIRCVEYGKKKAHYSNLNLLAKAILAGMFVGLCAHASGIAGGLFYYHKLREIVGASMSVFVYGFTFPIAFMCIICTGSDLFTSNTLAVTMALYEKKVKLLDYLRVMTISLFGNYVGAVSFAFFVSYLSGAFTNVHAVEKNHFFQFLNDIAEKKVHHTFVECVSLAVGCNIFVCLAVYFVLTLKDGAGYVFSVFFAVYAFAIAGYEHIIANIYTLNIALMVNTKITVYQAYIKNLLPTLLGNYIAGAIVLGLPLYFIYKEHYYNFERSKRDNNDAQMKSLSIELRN
Method: Lactate transport functionality of PfFNT was assayed as described before.[4] Briefly, Saccharomyces cerevisiae W303-1A jen1Δady2Δcells[32] (MATa, can1-100, ade2-loc, his3-11-15, leu2-3,-112, trp1-1-1, ura3-1, jen1::kanMX4, ady2::hphMX4) kindly provided by M. Casal expressing PfFNT was grown at 29 °C to an OD600 of 1 (±0.1). Harvested cells were resuspended to an OD600 of 50 (±5) in 50 mM HEPES/Tris, pH 6.8 (±0.1). 10–15 min prior to the assay, 80 μL of yeast suspension were added to 1 μL of DMSO with or without inhibitor in a 1.5 mL reaction tube at 18 °C. Twenty μL of L-lactate solution spiked with [1-^14C]-L-lactate (Hartmann Analytic) was added yielding a 1 mM inward gradient with 0.04 μCi label. Transport was stopped after 30 s by abrupt dilution with 1 mL of ice-cold water, vacuum filtration via GF/C filter membranes (Whatman), and washing with 7 mL of ice-cold water. The radio label was analyzed by liquid scintillation counting in 3 mL of scintillation cocktail (Rotiszint eco plus, Carl Roth) using a Packard TriCarb 2900 TR (PerkinElmer Inc.).
Transport assays in yeast were done in triplicate biological replicates. At least nine technical replicates were measured around the IC50 value, concentrations with no or full inhibition were determined from at least three technical replicates. EC50-values were determined from 2 to 4 biological replicates. IC50 and EC50 curves were fitted by the Hill equation with variable slope (Graph Pad Prism 10). Error bars denote ± SEM (for n ≥ 3) or ± range (for n = 2). For the EC50-value of 7a the error of the fitting of the curve is given. Cytotoxicity was determined from biological triplicates; error is shown as SEM.

[1] = tested on: Plasmodium falciparum 3D7 parasites; assay: P. falciparum 3D7 culture growth assay in erythrocytes (in vitro activity); format: cell-based; details: Plasmodium falciparum, 3D7, Erythrocyte; for activity at 0.05 µM / activity at 0.1 µM / activity at 0.2 µM / EC50: 48 h; for activity at 0.05 µM: read-out: % Growth at 50 nM (in vitro, 3D7); for activity at 0.1 µM: read-out: % Growth at 100 nM (in vitro, 3D7); for activity at 0.2 µM: read-out: % Growth at 200 nM (in vitro, 3D7); for EC50: read-out: EC50 (in vitro, 3D7)
Procedure, shortened: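 Parasitemia of P. falciparum 3D7 in erythrocyte culture was measured by flow cytometry and growth expressed as % of untreated control.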

P. berghei = P. berghei mouse model, 4 day Peters' test; format: in vivo, Plasmodium berghei (mice)
Method: The animal experiments against P. berghei were carried out at the Swiss Tropical and Public Health Institute adhering to local and national regulations of laboratory animal welfare in Switzerland (awarded permission no. BL530). Protocols are regularly reviewed and revised following approval by the local authority (Amt für Lebensmittelsicherheit and Veterinärwesen Basel-Land). Female mice infected with GFP-expressing P. berghei (ANKA strain, donated by A. P. Waters and C. J. Janse, Leiden University, The Netherlands) were analyzed for in vivo efficacy of 7e and 8a as described previously.[18],[19] Parasitemia was determined using flow cytometry with a detection limit of 1 parasite in 1000 erythrocytes. Compound activity was calculated as the difference between the mean parasitemia for the control and treated groups (n = 3, each) expressed relative to the control group. 7e and 8a were suspended in 70/30 Tween 80/ethanol, diluted 10-fold with water and administered orally 4, 24, 48, and 72 h after infection. 7e was analyzed at 30, 10, and 3 mg kg^–1, 8a at 50, and 10 mg kg^–1. In vivo efficacy against P. falciparum was conducted at The Art of Discovery, TAD, Bizkaia, Spain, according to the previously described standard assay.[16],[17]

[2] = Lipophilicity log D7.4 by HPLC (OECD guideline); format: physicochemical; details: RP-8 HPLC column (ZORBAX Eclipse XDB-C8), pH 7.4
Method: Lipophilicity was determined according to the OECD Guidelines for the Testing of Chemicals no. […]. Briefly, the test compounds plus 9 standards (4-acetylpyridine, acetanilide, acetophenone, methyl benzoate, ethyl benzoate, benzophenone, phenyl benzoate, diphenyl ether, triphenylamine) were separated by HPLC with UV detection at 220 nm (Waters HPLC 1525 with tunable absorbance detector 486) using an RP-8 column (Agilent Technologies ZORBAX Eclipse XDB-C8 4.6 × 150 mm, 5 μm) at 20 °C. Eluents A (20 mM ammonium formate, pH 7.4) and B (methanol) were used to generate a gradient profile of 80% A–100% B (0–35 min), 100% B (35–37 min), 100% B–80% A (37–42 min), and 80% A (42–55 min) at a flow rate of 0.8 mL min^–1. The dead time was determined via the injection peak caused by the solvent. The log D7.4 values were calculated by correlating the capacity factors with the known values of the standards via polynomial fitting.

[3] = oral 10 mg kg^–1 day^–1, four consecutive days

CCCNc1ccc(C(=O)/C=C(\O)C(F)(F)C(F)(F)F)cn1 [7e, 4,4,5,5,5-Pentafluoro-3-hydroxy-1-(6-(propylamino)pyridin-3-yl)pent-2-en-1-one]
IC50 (PfFNT G107S): 0.63 µM | activity at 0.05 µM ([1]; 50 nM compound, % of untreated control): 7% | activity at 0.1 µM ([1]; 100 nM compound, % of untreated control): 4% | activity at 0.2 µM ([1]; 200 nM compound, % of untreated control): 2% | inhibition at 0.05 µM ([1]; 50 nM compound, 100 minus % growth, read-out: inhibitory activity at 50 nM (in vitro, 3D7)): 93% | EC50 ([1]; cultures in erythrocytes): 14.8 nM | activity (reduction of parasitemia relative to untreated) (P. berghei; oral 3 mg kg^–1 day^–1, four consecutive days): 3.5% | activity (reduction of parasitemia relative to untreated) (P. berghei; [3]): 15.4% | activity (reduction of parasitemia relative to untreated) (P. berghei; oral 30 mg kg^–1 day^–1, four consecutive days): 34.2% | chromatographic logD [2]: 3.18

CC(=O)Nc1ccc(C(=O)/C=C(\O)C(F)(F)C(F)(F)F)cn1 [8a, N-[5-(4,4,5,5,5-Pentafluoro-3-hydroxypent-2-enoyl)pyridin-2-yl]acetamide]
IC50 (PfFNT G107S): 12 µM | activity at 0.05 µM [1]: 50% | activity at 0.1 µM [1]: 23% | activity at 0.2 µM [1]: 8% | EC50 [1]: 49.8 nM | activity (reduction of parasitemia relative to untreated) (P. berghei; [3]): 76.0% | activity (parasites cleared) (P. berghei; oral 50 mg kg^–1 day^–1, four consecutive days): 99.7% | chromatographic logD [2]: 1.7
